# “Also recorded” adds a separate entry of the source.
# Legend:
# [1] = test system: β-arrestin-2 knockout mice; conditions: cited from earlier work
# wild-type mice [2] = conditions: cited from earlier work
# wild-type mice [3] = conditions: cited from earlier work; remark: listed apart in the source
# [4] = test system: β-arrestin-2 knockout mice; experiment: PCP-induced hyperlocomotion in β-arrestin-2 knockout mice; type: in vivo, mouse; conditions: 2 mg/kg i.p., 30 min before 6 mg/kg PCP i.p.
# D5 receptor = D5 receptor (Homo sapiens, UniProt P21918); experiment: PDSP radioligand binding assay, D5; conditions: Table S1
# D5 receptor, sequence (P21918 whole entry): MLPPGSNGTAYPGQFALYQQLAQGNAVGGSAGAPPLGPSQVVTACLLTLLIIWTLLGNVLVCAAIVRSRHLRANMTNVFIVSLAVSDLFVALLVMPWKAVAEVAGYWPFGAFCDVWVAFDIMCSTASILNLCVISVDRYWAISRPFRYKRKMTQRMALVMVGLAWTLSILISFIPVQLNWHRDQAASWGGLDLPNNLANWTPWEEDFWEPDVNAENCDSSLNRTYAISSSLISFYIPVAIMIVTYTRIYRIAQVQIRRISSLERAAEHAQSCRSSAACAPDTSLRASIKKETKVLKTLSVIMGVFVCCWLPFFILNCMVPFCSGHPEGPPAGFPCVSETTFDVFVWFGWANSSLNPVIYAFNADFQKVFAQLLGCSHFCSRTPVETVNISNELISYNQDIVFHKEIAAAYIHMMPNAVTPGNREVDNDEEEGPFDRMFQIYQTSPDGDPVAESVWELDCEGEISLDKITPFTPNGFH
# wild-type mice [5] = experiment: PCP-induced hyperlocomotion in wild-type mice; type: in vivo, mouse; conditions: 2 mg/kg i.p., 30 min before 6 mg/kg PCP i.p.
# D1 receptor = D1 receptor (Homo sapiens, UniProt P21728); experiment: PDSP radioligand binding assay, D1; conditions: Table S1
# D1 receptor, sequence (P21728 whole entry): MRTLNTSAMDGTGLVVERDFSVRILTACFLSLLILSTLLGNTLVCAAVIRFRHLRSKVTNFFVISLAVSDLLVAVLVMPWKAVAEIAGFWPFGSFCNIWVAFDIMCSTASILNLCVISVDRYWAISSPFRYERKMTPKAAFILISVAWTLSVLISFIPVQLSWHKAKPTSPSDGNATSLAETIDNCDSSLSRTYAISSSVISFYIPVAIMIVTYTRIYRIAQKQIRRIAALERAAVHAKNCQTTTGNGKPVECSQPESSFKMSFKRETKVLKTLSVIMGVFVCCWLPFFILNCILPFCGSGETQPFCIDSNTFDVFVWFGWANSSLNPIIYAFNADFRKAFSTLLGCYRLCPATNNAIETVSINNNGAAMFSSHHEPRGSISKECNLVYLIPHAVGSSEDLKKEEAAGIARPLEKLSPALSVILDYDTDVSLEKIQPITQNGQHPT
# [6] = cited from earlier work
# D2L receptors [7] = target: T1, D2L receptors (Homo sapiens, UniProt P14416); experiment: cell-based; type: cell-based
# Target sequence in this assay (P14416 whole entry, added parts left off): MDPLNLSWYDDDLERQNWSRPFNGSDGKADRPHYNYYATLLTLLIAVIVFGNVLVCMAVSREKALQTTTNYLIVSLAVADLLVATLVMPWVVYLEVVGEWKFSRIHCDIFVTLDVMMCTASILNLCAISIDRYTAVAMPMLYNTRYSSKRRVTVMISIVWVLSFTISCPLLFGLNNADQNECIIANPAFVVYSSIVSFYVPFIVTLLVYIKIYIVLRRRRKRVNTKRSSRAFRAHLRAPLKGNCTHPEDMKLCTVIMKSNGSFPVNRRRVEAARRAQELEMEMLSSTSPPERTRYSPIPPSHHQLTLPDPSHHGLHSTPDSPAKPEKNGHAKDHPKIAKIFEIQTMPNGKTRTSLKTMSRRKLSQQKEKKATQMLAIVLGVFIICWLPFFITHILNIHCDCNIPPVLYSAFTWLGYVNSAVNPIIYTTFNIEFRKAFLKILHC
# Target sequence in this assay (P32121 whole entry partner): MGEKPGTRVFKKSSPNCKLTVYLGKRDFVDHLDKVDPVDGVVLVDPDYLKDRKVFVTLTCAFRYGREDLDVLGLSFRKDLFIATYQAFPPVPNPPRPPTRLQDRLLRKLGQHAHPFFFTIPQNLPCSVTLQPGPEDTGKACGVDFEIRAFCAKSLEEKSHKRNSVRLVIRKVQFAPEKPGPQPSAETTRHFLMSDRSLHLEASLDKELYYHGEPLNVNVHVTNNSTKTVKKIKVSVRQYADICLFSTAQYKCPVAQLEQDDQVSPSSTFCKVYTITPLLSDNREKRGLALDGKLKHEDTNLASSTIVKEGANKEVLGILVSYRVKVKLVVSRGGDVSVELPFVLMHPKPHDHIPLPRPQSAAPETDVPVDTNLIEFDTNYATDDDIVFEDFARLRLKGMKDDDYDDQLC
# D2L receptors [8] = target: T1, D2L receptors; experiment: D2R radioligand binding assay
# Target sequence in this assay (P14416 whole entry): as the sequence (P14416 whole entry, added parts left off) above
# D3 receptor = D3 receptor (Homo sapiens, UniProt P35462); experiment: PDSP radioligand binding assay, D3; conditions: Table S1
# D3 receptor, sequence (P35462 whole entry): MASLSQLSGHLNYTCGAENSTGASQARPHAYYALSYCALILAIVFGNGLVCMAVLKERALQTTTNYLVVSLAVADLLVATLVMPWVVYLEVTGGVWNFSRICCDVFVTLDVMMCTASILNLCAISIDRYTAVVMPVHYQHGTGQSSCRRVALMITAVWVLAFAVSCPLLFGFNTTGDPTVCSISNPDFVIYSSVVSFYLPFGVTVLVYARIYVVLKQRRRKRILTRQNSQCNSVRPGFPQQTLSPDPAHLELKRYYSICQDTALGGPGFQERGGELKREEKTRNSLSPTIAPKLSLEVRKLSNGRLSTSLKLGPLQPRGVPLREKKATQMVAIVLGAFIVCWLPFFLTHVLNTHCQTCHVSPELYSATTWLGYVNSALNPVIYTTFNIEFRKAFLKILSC
# D4 receptor = target: T2, D4 receptor (Homo sapiens, UniProt P21917); experiment: PDSP radioligand binding assay, D4; conditions: Table S1
# T2 sequence (P21917 1-419): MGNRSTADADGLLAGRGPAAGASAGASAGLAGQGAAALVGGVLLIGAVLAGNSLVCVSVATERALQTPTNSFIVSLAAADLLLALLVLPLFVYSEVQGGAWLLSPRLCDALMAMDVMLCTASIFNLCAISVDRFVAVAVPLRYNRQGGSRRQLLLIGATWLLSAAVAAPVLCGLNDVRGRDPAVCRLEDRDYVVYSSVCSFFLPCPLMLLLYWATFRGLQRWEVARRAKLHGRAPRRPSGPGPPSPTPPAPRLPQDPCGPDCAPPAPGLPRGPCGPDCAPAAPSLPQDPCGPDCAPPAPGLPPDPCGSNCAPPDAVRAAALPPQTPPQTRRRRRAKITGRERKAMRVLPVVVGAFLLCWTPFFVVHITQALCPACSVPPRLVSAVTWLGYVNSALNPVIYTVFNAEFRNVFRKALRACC
smiles,measurement,setting,value
O=C1CCc2ccc(OCCCCN3CCCN(c4cccc(Cl)c4Cl)CC3)nc2N1 [Compound 44],antipsychotic drug-like activities in β-arrestin-2 knockout mice,[1],significantly attenuated or completely abolished
same,antipsychotic drug-like activities in wild-type mice,wild-type mice [2],robust
same,catalepsy in wild-type mice,wild-type mice [3],did not induce catalepsy
O=C1CCc2ccc(OCCCCN3CCCN(c4cccc(Cl)c4Cl)CC3)cc2N1 [Compound 19],"antipsychotic-like activity (PCP-induced hyperlocomotion), β-arrestin-2 knockout mice",[4],neither compound affected; also recorded: completely abolished
same,binding affinity to D5 receptor,D5 receptor,low affinities
same,"effect on PCP-induced hyperlocomotion, wild-type mice",wild-type mice [5],markedly inhibited
same,binding affinity to D1 receptor,D1 receptor,low affinities
"O=C1CCc2ccc(OCCCCN3CCN(c4cccc(Cl)c4Cl)CC3)cc2N1 [Compound 1, aripiprazole]",oral bioavailability,[6],high
"CC(C)Oc1ccccc1N1CCN(CCCCOc2ccc3c(c2)NC(=O)CC3)CC1 [Compound 4, 7-(4-(4-(2-Isopropoxyphenyl)piperazin-1-yl)butoxy)-3,4-dihydroquinolin-2(1H)-one]",potency at activating β-arrestin versus Gi signaling,D2L receptors [7],about 10 fold
"O=C1CCc2ccc(OC[C@@H]3C[C@H]3CN3CCN(c4cccc(Cl)c4Cl)CC3)cc2N1 (relative stereo) [Compound 24, Trans-7-((2-((4-(2,3-dichlorophenyl)piperazin-1-yl)methyl)cyclopropyl)methoxy)-3,4-dihydroquinolin-2(1H)-one]",Ki,D2L receptors [8],0.235 µM
same,EC50,D2L receptors [7],1.26 µM
"Clc1cccc(C2CCN(CCCCOc3ccc4scnc4c3)CC2)c1Cl [Compound 35, 5-(4-(4-(2,3-Dichlorophenyl)piperidin-1-yl)butoxy)benzo[d]thiazole]",binding affinity to D3 receptor,D3 receptor,high affinities
same,"antipsychotic-like activity (PCP-induced hyperlocomotion), β-arrestin-2 knockout mice",[4],neither compound affected
same,binding affinity to D2 receptor,D2L receptors [8]; Table S1,high affinities
same,binding affinity to D4 receptor,D4 receptor,high affinities
same,binding affinity to D5 receptor,D5 receptor,low affinities
same,"effect on PCP-induced hyperlocomotion, wild-type mice",wild-type mice [5],significantly reduced
same,binding affinity to D1 receptor,D1 receptor,low affinities
Clc1cccc(C2CCN(CCCOc3ccc4scnc4c3)CC2)c1Cl [Compound 36],antipsychotic drug-like activities in β-arrestin-2 knockout mice,[1],significantly attenuated or completely abolished
same,antipsychotic drug-like activities in wild-type mice,wild-type mice [2],robust
same,catalepsy in wild-type mice,wild-type mice [3],did not induce catalepsy

# Reference: article PMC3443605 (Journal of medicinal chemistry, 2012)
